# Laboratory results taken from patent US11422091B2, “Turn-on near infrared fluorescent probes for imaging lysosomal ROS in live cells at subcellular resolution” (University of Massachusetts, priority 2015, dated 2022).
# How the values were obtained:
# [1] = Fluorescent responses of RTMI to various ROS in PBS
# Procedure: Fresh solutions of L-ascorbic acid (50 mM), hydrogen peroxide (100 mM), tert-butyl hydrogen peroxide (TBHP, 100 mM), 3-morpholinosydnonimine (SIN-1, 5 mM), glutathione reduced form (GSH, 10 mM) and glutathione oxidized form (GSSG, 10 mM) were prepared with distilled water. […]
# The hydroxyl and butoxyl radicals were generated in situ by reacting hydrogen peroxide or TBHP with Fe^2+. Fresh 10 mM Fe^2+ was made in 0.1 M HCl solution using ferrous ammonium sulfate [Fe(NH4)2(SO4)2.6H2O]. A 10 μM RTMI solution, in PBS, containing 10 μM Fe^2+ was made and either hydrogen peroxide or TBHP was added to this solution to generate a 100 μM concentration.
# Fluorescence spectra were recorded on a Perkin-Elmer LS55 luminescence spectrometer at 293 K. The excitation wavelengths and filters used were indicated in the figures. The pH measurements were carried out on a Corning pH meter equipped with a Sigma-Adrich micro combination electrode calibrated with standard buffer solution.
# Fluorescent responses of RTMI (100 μM) to various ROS were monitored in PBS, containing 1% methanol. Various reactive oxygen species were added to the 100 μM RTMI solutions, at a 5:1 molar ratio to RTMI, and the fluorescence intensity was recorded after 5 min of incubation at 25° C. Superoxide (O2.^−) was added as solid KO2. Stock solution solutions of hydrogen peroxide, tert-butyl hydrogen peroxide (TBHP), hypochlorite, 3-morpholinosydnonimine (SIN-1), glutathione (GSH) and 1,4-hydroquinone were made and then added to the RTMI solution, to generate a 500 μM final concentration. 3-(aminopropyl)-1-hydroxy-3-isopropyl-2-oxo-1-triazene (NOC-5, 1 mM) was made as a 10 mM sodium hydroxide solution and then added to the RTMI solution, to generate a 500 μM final concentration. The hydroxyl and butoxyl radicals were generated in situ by reacting hydrogen peroxide or TBHP with Fe^2+. A 100 μM RTMI solution, in PBS, containing 500 μM Fe^2 was made and either hydrogen peroxide or TBHP was added to this solution to generate a 500 μM concentration.
# BAEC cells = test: Detection of ROS in live BAEC cells by fluorescence microscopy; format: cell-based, bovine; details: HO., H2O2, KO2, TBO, TBHP, peroxynitrite or ox-LDL, RTMI 10 μM
# Procedure: In one embodiment, the RTMI may be used to analyze ROS species within living systems. The RTMI sensor solution was applied to live cells and analyzed under a fluorescence microscope. Each of the various ROS (HO., H2O2, KO2, TBO, TBHP, peroxynitrite) or ROS inducer (ox-LDL) that were present combined with the RTMI sensor were incubated with BAEC cells.
# The sensor RTMI was dissolved in DMF at a concentration of 10 mM. 1 μL of the DMF solution was added to cell medium without fetal bovine serum. Cell culture medium was removed from the cells in the culture dish and replaced with the fresh medium containing the sensor.
# Oxidized low density lipoprotein (Ox-LDL, a stimulation factor for ROS production in cells) was dissolved in water solution and the final concentration in cell media was 20 μg/mL.
# Commercial H2O2 (30% wt, density of 1.1 g/ml, MW 34.02 g/mol) was diluted with deionized water to make a fresh solution of 100 mM. 1 μL of the fresh solution was added to cell media to generate a final concentration of 100 μM.
# SIN1 (a peroxyitrite donor) was dissolved in deionized water to the concentration of 10 mM; 10 μL of this solution added to cell media to generate a final concentration of 100 μM.
# Fe^2+ was freshly made from ferrous ammonium sulfate (MW 392.15 g/mol) dissolved in 0.1 M HCl (DI water solution) to generate a fresh solution of 100 mM. […]
# [2] = test system: Bovine Aortic Endothelial Cells (BAEC); test: Co-localization with Mito Tracker Green and Lyso Tracker Blue, confocal imaging in BAEC; format: cell-based; details: BAEC preloaded with TBHP (100 μM) 30 min, RTMI (10 μM) 30 min
# Procedure: Confocal fluorescence imaging studies were performed with a Zeiss LSM 710 laser scanning microscope.
# [3] = Photo stability of the sensor; format: physicochemical
# [4] = RTMI 100 μM in PBS, 1% methanol, 500 μM, 5 min, 25° C.
smiles,measurement,setting,value
CCCN1c2ccccc2C(C)(C)C1/C=C/C1=C2Oc3cc(O)ccc3C=C2CCC1 (stereo not drawn) [RTMI],fluorescence response to TBHP,[1]; [4],turn-on
same,fluorescence response to hydrogen peroxide,[1]; [4],turn-on
same,fluorescence response to peroxynitrite (generated by SIH 1),[1]; [4],turn-on
same,fluorescence response to superoxide (O2.-),"[1]; RTMI 100 μM in PBS, 1% methanol, solid KO2, 5:1 molar ratio, 5 min, 25° C.",turn-on
same,fluorescence response to butoxyl radical (TBO),"[1]; RTMI 100 μM in PBS, generated in situ from TBHP 500 μM and Fe2+ 500 μM",turn-on
same,fluorescence response to hydroxyl radical,"[1]; RTMI 100 μM in PBS, generated in situ from hydrogen peroxide 500 μM and Fe2+ 500 μM",turn-on
same,fluorescence response to Fe2+,[1]; beyond baseline fluorescence,does not respond
same,fluorescence response to GSH,[1]; beyond baseline fluorescence,does not respond
same,fluorescence response to GSSG,[1]; beyond baseline fluorescence,does not respond
same,fluorescence response to nitrite,[1]; beyond baseline fluorescence,does not respond
same,fluorescence response to nitric oxide radical,"[1]; beyond baseline fluorescence, NOC-5",does not respond
same,fluorescence peak upon reacting with ROS,"[1]; in physiological buffer, near IR region",705 nm
same,"fluorescence emission in the near IR region of cells treated with ROS or ROS inducers, compared to the control",BAEC cells,strongly fluorescence emission signals
same,subcellular location of ROS detected by the sensor,[2],in lysosomes
same,photo stability,[3],very good photo stability
